Test results published in paper PMC4258421 (Archives of biochemistry and biophysics, 2014).
Like-named read-outs stand apart in the source and are kept apart here.

Tests used:
[1] = tested on: recombinant UGT1A1; conditions: read-out: Km for the UGT1A1 reaction, glucuronidation at the C7 hydroxyl group; cited from earlier work
[2] = tested on: plasma proteins; conditions: cited from earlier work
[3] = tested on: UGTs in human liver microsomes pooled from 150 donors (HLM150); format: in vitro ADME; conditions: for Km: read-out: Km for the microsomal reaction, glucuronidation at the C7 hydroxyl group, HLM150
[4] = formation of 7-HOWAR-4-GLUC, DynaFit preferred model, 95 % CI in parentheses
[5] = formation of 7-HOWAR-7-GLUC, DynaFit preferred model, 95 % CI in parentheses

SMILES | Km [1] | not bound to plasma proteins [2] | Vmax1 [3, 4] | Vmax2 [3, 4] | Ks [3, 5] | Vmax1 [3, 5] | Km [3] | Ks [3, 4]
CC(=O)C[C@H](c1ccccc1)c1c(O)c2ccc(O)cc2oc1=O [R-7-HOWAR, R-7-hydroxywarfarin] | 130 µM | 4.49% | 58.0 (49.5–66.1) nmol/min/mg protein | 19.0 (16.3–21.4) nmol/min/mg protein | 121 (101–144) μM | 1090 (1050–1140) nmol/min/mg protein | 121 µM | 
CC(=O)C[C@@H](c1ccccc1)c1c(O)c2ccc(O)cc2oc1=O [S-7-OHWAR, S-7-hydroxywarfarin] | 230 µM | 4.27% | 19.7 (17.6–22.4) nmol/min/mg protein |  | 927 (559–1960) μM | 1470 (1020–2700) nmol/min/mg protein | 927 µM | 110 (83.0–149) μM
